Measured values from patent publication US10221426B2, “Constitutively active PYR/PYL receptor proteins for improving plant stress tolerance” (The Regents of the University of California, priority 2009, dated 2019).

Assays:
PYL3-HAB1 = target: T1, PYL3-HAB1 (Arabidopsis thaliana, UniProt Q9SSM7); assay: Yeast two-hybrid BD-PYL3 / AD-HAB1 interaction; format: cell-based; details: 10 μM
T1 construct: BD-PYR/PYL fusion proteins were constructed in the same manner as for BD-PYR1 above; expressed in transfected cells; host or cells: yeast (Y190, as for BD-PYR1)
T1 sequence (Q9SSM7 1-209): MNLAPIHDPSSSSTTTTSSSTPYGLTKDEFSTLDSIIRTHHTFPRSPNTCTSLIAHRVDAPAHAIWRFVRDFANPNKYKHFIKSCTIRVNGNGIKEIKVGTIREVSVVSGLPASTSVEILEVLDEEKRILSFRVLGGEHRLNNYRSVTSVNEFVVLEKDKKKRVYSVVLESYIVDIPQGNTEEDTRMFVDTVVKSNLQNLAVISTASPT
T1 sequence (Q9CAJ0 23-511 partner): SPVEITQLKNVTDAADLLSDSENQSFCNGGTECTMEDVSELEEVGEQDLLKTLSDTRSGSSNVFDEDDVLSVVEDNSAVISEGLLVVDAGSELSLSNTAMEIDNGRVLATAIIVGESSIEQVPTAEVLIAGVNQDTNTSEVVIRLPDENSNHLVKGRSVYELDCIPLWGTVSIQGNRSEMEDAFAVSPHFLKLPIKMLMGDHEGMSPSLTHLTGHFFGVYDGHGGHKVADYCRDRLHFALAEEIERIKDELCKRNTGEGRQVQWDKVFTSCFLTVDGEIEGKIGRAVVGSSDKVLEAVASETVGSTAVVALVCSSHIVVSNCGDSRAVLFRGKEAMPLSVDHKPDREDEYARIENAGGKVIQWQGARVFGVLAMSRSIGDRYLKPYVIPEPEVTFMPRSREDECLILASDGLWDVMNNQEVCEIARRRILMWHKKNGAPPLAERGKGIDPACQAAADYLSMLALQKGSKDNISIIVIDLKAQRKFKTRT
Experimental: (§1) Given that PYR1 is necessary for pyrabactin action and is a predicted ligand-binding protein, we hypothesized that pyrabactin agonizes ABA signaling by inducing a protein-protein interaction between PYR1 and a downstream effector. To test this, ˜2 million prey cDNA clones were screened against a PYR1 Y2H bait construct on media containing 10 μM pyrabactin. To create the PYR1 Y2H bait construct, the Pyr1 open reading frame was PCR amplified from genomic DNA and cloned to pGem-T easy vector (Promega). After sequence confirmation, the Pyr1 ORF was then cloned in-frame between EcoRI and SalI sites of the pBD-GAL4 Cam vector (Stratagene) and transformed into yeast strain Y190. For the screen, an etiolated seedling cDNA library (J. Kim, K., Harter, A., Theologis, Proc Natl Acad Sci USA 94, 11786 (Oct. 28, 1997)) (ABRC stock CD4-22) was used. The cDNA library was first converted from phage to plasmid DNA, yielding 7.6×10^7 transformants. Plasmid DNA prepared from library was then used to transform Y190 as described in the GAL4 Two-Hybrid system manual (Stratagene). For each screen, 40 μg of prey plasmid was transformed into 1 ml of competent Y190 cell harboring bait construct and then grown on SD agar plates lacking His, Leu, and Trp, but containing 15 mM 3-AT and 10 μM pyrabactin. After 4 days incubation at 30° C., well-grown colonies were rescued and interactions validated using filter lift assay or chloroform-agarose overlay method and X-Gal staining. This identified two pyrabactin-dependent hits which sequencing determined encoded cDNAs for the PP2C HAB1, a close relative of the well-characterized ABA response factor ABI1 (A. Saez et al., The Plant Journal 37, 354 (2004); N. Leonhardt et al., THE PLANT CELL 16, 596 (2004)). Next, Y2H strains expressing an AD-HAB1 fusion protein and a BD-PYR1 fusion protein were grown on plates and tested for interactions in response to various compounds, all at 10 μM except for epi-brassinolide (50 nM) and dimethyl sulfoxide (DMSO) (carrier solvent, 1%). […] Thus, PYR1 interacts with HAB1 in a (+)-ABA dependent fashion.
To see if ABA and pyrabactin responsiveness is unique to PYR1, we tested 11 of the 13 PYL proteins as described above, using Y2H strains expressing an AD-HAB1 fusion protein and a BD-PYR/PYL fusion protein (listed at the left of FIG. 3A). BD-PYR/PYL fusion proteins were constructed in the same manner as for BD-PYR1 above. […] Of these, only Pyr1 is highly transcribed in seeds, which likely explains why mutations in Pyr1 cause the seeds to be insensitive to pyrabactin. […] However the interactions of PYLs 5-12 with the PP2Cs are indicative that the entire protein family is likely to share a similar mechanism of action involving PP2C modulation, as we describe below. Thus, we conclude that entire family modulates ABA responses via PP2C interactions.
The yeast strains expressing PYR/PYL receptors and type 2 C protein phosphatases were also used to screen HPLC-fractionated plant extracts for the presence of endogenous compounds that activate PYL/PYL receptors PYR1, PYL2, PYL3, and/or PYL4. HPLC fractionation of extracts was used to identify compounds different from abscisic acid (the known agonist). […] Purification of the agonist was achieved via multiple rounds of chromatographic separation coupled to yeast two hybrid assays that informed the fractions to move forward at each step of the purification. The structure of the purified agonist was deduced by X-ray crystallography of crystalline purified agonist.

[1] = target: T2, HAB1 in the presence of PYL4 (Arabidopsis thaliana, UniProt O80920); assay: PP2C phosphatase assay (pNPP), GST-HAB1 in the presence of PYL4; format: biochemical; details: recombinant PYL4 refolded from inclusion bodies
T2 construct: vector pHB3; made in house
T2 sequence (O80920 1-207): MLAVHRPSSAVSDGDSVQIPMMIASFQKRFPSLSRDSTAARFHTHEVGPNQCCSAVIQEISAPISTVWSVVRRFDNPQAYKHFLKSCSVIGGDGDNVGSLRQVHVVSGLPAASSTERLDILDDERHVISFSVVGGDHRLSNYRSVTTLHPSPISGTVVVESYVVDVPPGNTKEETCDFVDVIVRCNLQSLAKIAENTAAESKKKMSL
T2 sequence (Q9CAJ0 23-511 partner): T1 sequence (Q9CAJ0 23-511 partner)

PYL2-HAB1 = target: T3, PYL2-HAB1 (Arabidopsis thaliana, UniProt O80992); assay: Yeast two-hybrid BD-PYL2 / AD-HAB1 interaction, X-gal stain; format: cell-based; details: 10 μM
T3 construct: BD-PYR/PYL fusion proteins were constructed in the same manner as for BD-PYR1 above; expressed in transfected cells; host or cells: yeast (Y190, as for BD-PYR1)
T3 sequence (O80992 1-190): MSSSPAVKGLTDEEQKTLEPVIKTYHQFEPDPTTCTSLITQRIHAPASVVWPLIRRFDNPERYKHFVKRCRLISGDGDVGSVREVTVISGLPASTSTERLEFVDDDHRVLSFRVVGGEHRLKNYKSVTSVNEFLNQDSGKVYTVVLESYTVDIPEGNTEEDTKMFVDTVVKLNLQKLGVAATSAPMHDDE
T3 sequence (Q9CAJ0 23-511 partner): T1 sequence (Q9CAJ0 23-511 partner)
Experimental: as §1, with “fashion. […]” for “fashion.”

PYL1-HAB1 = target: T4, PYL1-HAB1 (Arabidopsis thaliana, UniProt Q8VZS8); assay: Yeast two-hybrid BD-PYL1 / AD-HAB1 interaction, X-gal stain; format: cell-based; details: 10 μM
T4 construct: BD-PYR/PYL fusion proteins were constructed in the same manner as for BD-PYR1 above; expressed in transfected cells; host or cells: yeast (Y190, as for BD-PYR1)
T4 sequence (Q8VZS8 1-221): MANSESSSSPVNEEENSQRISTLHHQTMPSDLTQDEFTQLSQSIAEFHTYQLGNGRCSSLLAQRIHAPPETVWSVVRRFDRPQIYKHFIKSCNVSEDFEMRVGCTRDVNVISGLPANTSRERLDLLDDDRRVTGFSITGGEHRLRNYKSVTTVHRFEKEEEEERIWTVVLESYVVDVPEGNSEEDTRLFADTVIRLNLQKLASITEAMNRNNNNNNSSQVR
T4 sequence (Q9CAJ0 23-511 partner): T1 sequence (Q9CAJ0 23-511 partner)
Experimental: Given that PYR1 is necessary for pyrabactin action and is a predicted ligand-binding protein, we hypothesized that pyrabactin agonizes ABA signaling by inducing a protein-protein interaction between PYR1 and a downstream effector. To test this, ˜2 million prey cDNA clones were screened against a PYR1 Y2H bait construct on media containing 10 μM pyrabactin. To create the PYR1 Y2H bait construct, the Pyr1 open reading frame was PCR amplified from genomic DNA and cloned to pGem-T easy vector (Promega). After sequence confirmation, the Pyr1 ORF was then cloned in-frame between EcoRI and SalI sites of the pBD-GAL4 Cam vector (Stratagene) and transformed into yeast strain Y190. For the screen, an etiolated seedling cDNA library (J. Kim, K., Harter, A., Theologis, Proc Natl Acad Sci USA 94, 11786 (Oct. 28, 1997)) (ABRC stock CD4-22) was used. The cDNA library was first converted from phage to plasmid DNA, yielding 7.6×10^7 transformants. Plasmid DNA prepared from library was then used to transform Y190 as described in the GAL4 Two-Hybrid system manual (Stratagene). […] This identified two pyrabactin-dependent hits which sequencing determined encoded cDNAs for the PP2C HAB1, a close relative of the well-characterized ABA response factor ABI1 (A. Saez et al., The Plant Journal 37, 354 (2004); N. Leonhardt et al., THE PLANT CELL 16, 596 (2004)). […]

SMILES | PYL3-HAB1 interaction by X-gal stain (PYL3-HAB1) | inhibition of HAB1 phosphatase activity in the presence of PYL4 [1] | PYL2-HAB1 interaction by X-gal stain (PYL2-HAB1) | PYL1-HAB1 interaction by X-gal stain (PYL1-HAB1)
CC1=CC(=O)CC(C)(C)C1(O)/C=C/C(C)=C\C(=O)O (single isomer, unassigned; (+)) [(+)-ABA] | respond | inhibits HAB1 phosphatase activity | respond | 
CC1=CC(=O)CC(C)(C)[C@@]1(O)/C=C/C(C)=C\C(=O)O [ABA, Abscisic acid] | interact with HAB1 in an ABA-stimulated manner | saturable inhibition | interact with HAB1 in an ABA-stimulated manner | interact with HAB1 in an ABA-stimulated manner
O=S(=O)(NCc1ccccn1)c1ccc(Br)c2ccccc12 [pyrabactin] | promotes interactions |  |  | promotes interactions
